# Patent publication US20120134985A1, “METHODS FOR MODULATING METABOLIC AND CIRCADIAN RHYTHMS” (The Salk Institute for Biological Studies, priority 2009, published 2012)
# Columns and labels:
# AMPK [1] = conditions: cited from earlier work
# mCRY1 = experiment: Levels of exogenously expressed Flag-mCRY1 in HeLa cells expressing WT or KD LKB1 (immunoblot); assay type: cell-based, mouse; conditions: HeLa cells with wild type (WT) LKB1; 2 mM AICAR for 2 hours
# Source text: (A) Sequence alignments showing evolutionary conservation of the regions surrounding S71 of mCRY1 in cryptochrome circadian transcriptional repressors (species names in red font) and blue light photoreceptors (species names in blue font). The highlighted numbers above the sequences indicate amino acid preferences at those positions relative to the target serine for phosphorylation by AMP kinase: red indicates a preference for acidic residues (K/R) and green for hydrophobic residues (L/I/V/F). (B) Top: sequence alignment of the phospho-peptides against which antibodies to mCRY1-pS71 and mACC1-pS79 were raised. Bottom: Both anti-mCRY1-pS71 and anti-ACC1-pS79 antibodies recognize WT but not S71A Flag-mCRY1 immunoprecipitated from AD293 cells. (C) anti-mCRY1-p571 was used to detect phosphorylation of Ser71 in Flag-CRY1 immunoprecipitated from AD293 cells transiently expressing wild type CRY1 (WT) or CRY1S71A (S71A) in the absence or presence of activated alleles of AMPKα1 (CAα1) or AMPKα2 (CAα2). Transiently expressed myc-CAα1 and myc-CAα2 were immunostained with polyclonal rabbit antibodies raised against the myc epitope tags and anti-rabbit AF488 (green). Nuclei were counterstained with DAPI (blue). […] CRY1 was detected by immunoprecipitation and immunoblotting for the Flag epitope in (D-G). […]
# CRY1 = experiment: Flag-CRY1 degradation/stability in AMPK+/+ and AMPK-/- mouse embryonic fibroblasts (immunoprecipitation, immunoblot, cycloheximide time course); assay type: cell-based
# Source text: (A) Sequence alignments showing evolutionary conservation of the regions surrounding S71 of mCRY1 in cryptochrome circadian transcriptional repressors (species names in red font) and blue light photoreceptors (species names in blue font). The highlighted numbers above the sequences indicate amino acid preferences at those positions relative to the target serine for phosphorylation by AMP kinase: red indicates a preference for acidic residues (K/R) and green for hydrophobic residues (L/I/V/F). (B) Top: sequence alignment of the phospho-peptides against which antibodies to mCRY1-pS71 and mACC1-pS79 were raised. Bottom: Both anti-mCRY1-pS71 and anti-ACC1-pS79 antibodies recognize WT but not S71A Flag-mCRY1 immunoprecipitated from AD293 cells. (C) anti-mCRY1-p571 was used to detect phosphorylation of Ser71 in Flag-CRY1 immunoprecipitated from AD293 cells transiently expressing wild type CRY1 (WT) or CRY1S71A (S71A) in the absence or presence of activated alleles of AMPKα1 (CAα1) or AMPKα2 (CAα2). Transiently expressed myc-CAα1 and myc-CAα2 were immunostained with polyclonal rabbit antibodies raised against the myc epitope tags and anti-rabbit AF488 (green). Nuclei were counterstained with DAPI (blue). (D) HeLa cells transiently expressing Flag-CRY1 with wild type (WT) or kinase dead (KD) LKB1 were treated with vehicle (−) or 2 mM AICAR (+) for 2 hours. (E) AD293 cells transiently expressing the indicated alleles of Flag-mCRY1 were treated with media containing 25 mM or 0.5 mM glucose. (F) Paired wild type (AMPK+/+) and ampkα1^−/−;ampkα2^−/− (AMPK−/−) mouse embryonic fibroblasts stably expressing Flag-tagged wild type CRY1 (WT) or CRY1S71A/S280A (AA) were treated with vehicle (−) or 2 mM AICAR (+) for 2 hours. (G) MEFs described in (F) were treated with 100 μg/ml cycloheximide (CHX) for the indicated times. CRY1 was detected by immunoprecipitation and immunoblotting for the Flag epitope in (D-G). […]
# [2] = test system: reverba and dbp expression; experiment: Quantitative PCR of circadian transcripts in serum-stimulated mouse embryonic fibroblasts; assay type: cell-based; conditions: 25 mM glucose supplemented with 1 mM AICAR
# Description: (A) Unsynchronized paired wild type (AMPK^+/+) or ampkα1^−/−; ampkα2^−/− (AMPK−/−) mouse embryonic fibroblasts were stimulated by 2 hour exposure to 50% horse serum followed by transfer to media containing 25 mM glucose, 0.5 mM glucose or 25 mM glucose supplemented with 1 mM AICAR. Quantitative PCR analysis was performed using cDNA samples collected at the indicated times following stimulation. Data represent the mean of two independent experiments, each analyzed in triplicate. (B) Fibroblasts stably expressing Bmall-luciferase were cultured in media containing the indicated amounts of glucose with or without 2 mM AICAR. Typical results of continuous monitoring of luciferase activity are shown. (C and D) Quantitation of the circadian period (C) and amplitude (D) of Bmall-driven luciferase activity from experiments performed as described in (B). Data in (C) and (D) represent the mean±standard deviation for four samples per condition. […]
# FIG. 10A-D show disruption of AMPK alters circadian rhythms in MEFs. […] Quantitative PCR analysis was performed using cDNA samples prepared from lysates collected at the indicated times following stimulation. Data represent the mean±standard deviation of two or three independent experiments each analyzed in triplicate. […]
# Bmall-luciferase = experiment: Real time bioluminescence monitoring of Bmall-luciferase circadian rhythms; assay type: cell-based, human; conditions: high glucose medium supplemented with 2 mM AICAR
# Description: (A) Unsynchronized paired wild type (AMPK^+/+) or ampkα1^−/−; ampkα2^−/− (AMPK−/−) mouse embryonic fibroblasts were stimulated by 2 hour exposure to 50% horse serum followed by transfer to media containing 25 mM glucose, 0.5 mM glucose or 25 mM glucose supplemented with 1 mM AICAR. Quantitative PCR analysis was performed using cDNA samples collected at the indicated times following stimulation. Data represent the mean of two independent experiments, each analyzed in triplicate. (B) Fibroblasts stably expressing Bmall-luciferase were cultured in media containing the indicated amounts of glucose with or without 2 mM AICAR. Typical results of continuous monitoring of luciferase activity are shown. (C and D) Quantitation of the circadian period (C) and amplitude (D) of Bmall-driven luciferase activity from experiments performed as described in (B). Data in (C) and (D) represent the mean±standard deviation for four samples per condition. ANOVA analysis indicated a significant difference between categories. ** P<0.01 vs. samples cultured in 25 mM glucose in Scheffe's post-hoc analysis.
# The Bmall promoter is repressed by REVERBa. […]
# Real Time Bioluminescence Monitoring—The human osteosarcoma U2OS reporter cell line stably expressing a Bmall promoter driven luciferase has been described. […] Bioluminescence was continuously recorded by a LumiCycle apparatus from Actimetrics, Inc.
# [3] = test system: Fas and Por expression in liver; experiment: Liver gene expression (quantitative PCR) in wildtype and Cry1-/-;Cry2-/- mice injected with AICAR; assay type: in vivo, mouse
# Description: Wildtype (WT) or Cry1^−/−;Cry2^−/− (CRY^−/−) mice were injected with either saline (black bars) or 500 mg AICAR per kg of bodyweight (red bars) at 6:00 pm. cDNA was prepared from livers collected four hours later at 10:00 pm and gene expression was analyzed by quantitative PCR using Sybr GreenER chemistry. […] Data represent the mean±s.e.m. for 3-5 mice per condition.
# Gene Expression—RNA was extracted from livers or cultured fibroblasts with Trizol or using the Qiagen RNeasy purification system. cDNA was prepared using the SuperscriptII reverse transcriptase (Invitrogen) and analyzed for gene expression using quantitative real-time PCR with either SYBR green (Invitrogen) or TaqMan (Applied Biosystems) chemistry. Primer sequences are available upon request.
# Mice—LKB1^fl/fl mice were a gift from Dr. Ronald De Pinho, Cry1^−/−;Cry2^−/− mice were a gift from Dr. Aziz Sancar. Adenovirus expressing Cre recombinase was from the University of Iowa Transgenic Core facility. All animal care and treatments were in accordance with the Salk Institute guidelines for the care and use of animals.
# Furthermore, the effect on metabolic physiology of genetic disruption of both Cry1 and Cry2 in mice is examined.
# AMPK [4] = experiment: In vitro phosphorylation assay of purified Flag-mCRY1 by purified AMPK; assay type: biochemical; conditions: 300 μM AMP; 30 minutes; 32P-ATP
# Description: Flag-tagged mCRY1 purified from AD293 cells was incubated for 30 minutes with #^32P-ATP in the absence or presence of AMP kinase and 300 μM AMP as indicated. Phosphorylation of mCRY1 was detected by autoradiography; total mCRY1 levels were determined by immunoblot for the Flag epitope.
# In vitro Phosphorylation Assay—Flag-mCRY1 was purified from transfected AD293 cells and combined with ^32P-ATP and purified AMPK (from Upstate Biotechnology) in the presence or absence of 300 uM AMP for 30 minutes at room temperature. The reaction mixture was separated by SDS-PAGE and transferred to nitrocellulose. Following radioactive visualization by phosphoimager, the nitrocellulose was immunoblotted for the Flag tag.
# [5] = WT or Cry1-/-;Cry2-/- mice, 500 mg AICAR per kg of bodyweight, livers collected four hours later
compound,measurement,setting,value
"NC(=O)c1ncn([C@@H]2O[C@H](COP(=O)(O)O)[C@@H](O)[C@H]2O)c1N [ZMP, 5-amino-4-imidazolecarboxamide ribotide]",AMPK activation,AMPK [1]; AMP analog formed in the cell from AICAR,has been shown to activate AMPK
same,specificity as AMPK activator,AMPK [1]; also acts as an AMP mimic in the regulation of other enzymes,not a specific AMPK activator
"NC(=O)c1ncn([C@@H]2O[C@H](CO)[C@@H](O)[C@H]2O)c1N [AICAR, 5-amino-4-imidazolecarboxamide riboside]",levels of exogenously expressed mCRY1,mCRY1,reduction was enhanced
same,stability of wild type CRY1,CRY1; 4-hour time course of cycloheximide treatment in the presence of AICAR,reduced stability
same,effect on WT or AA CRY1,"CRY1; AMPK-/- MEFs (absence of functional AMPK), 2 mM AICAR for 2 hours",no effect
same,degradation of wild type (WT) Flag-CRY1,"CRY1; wild type (AMPK+/+) MEFs, 2 mM AICAR for 2 hours",acutely degraded
same,expression of reverba and dbp,[2]; MEFs lacking AMPK (AMPK-/-),neither glucose deprivation nor AICAR treatment affected
same,amplitude of circadian reverba and dbp expression,[2]; wild type fibroblasts,mimicked the effects of glucose deprivation
same,amplitude of Bmall-luciferase expression,Bmall-luciferase,decreased the amplitude
same,Fas (fatty acid synthase) expression in liver,[3]; [5],activated by AICAR regardless of Cry1 and Cry2 genotype
same,Por (p450 oxidoreductase) expression in liver,[3]; [5],AICAR-induced activation requires cryptochromes
same,gene expression in the livers,[3]; wildtype and cryptochrome-deficient mice injected with AICAR,cryptochromes are required for AICAR-induced activation of a subset of the genes
Nc1ncnc2c1ncn2[C@@H]1O[C@H](COP(=O)(O)O)[C@@H](O)[C@H]1O [AMP],phosphorylation of mCRY1 by purified AMPK,AMPK [4],strongly activated
